Test results published in article PMC12191028, “Preparation of Nanoparticle-Immobilized Gold Surfaces for the Reversible Conjugation of Neurotensin Peptide” (Biomolecules, 2025).

Tests used:
[1] = biological target: NTSR2 antibody; experiment: NTSR2 antibody–NTS(8–13) peptide binding affinity by microscale thermophoresis (MST); settings: Monolith NT.115 Pico, RED-NHS-labeled NTSR2 antibody 20 nM, PBS with 0.005% Tween-20, 20 min dark incubation, 16 serial dilutions from 0.5 mg/mL, free peptide in solution, n = 3, read-out: dissociation constant (Kd)
Description: An RED-NHS 2nd generation protein labeling kit and Monolith NT.115 premium capillaries were obtained from NanoTemper Technologies (Munich, Germany). The binding affinity of the NTSR2 antibody–NTS(8–13) peptide interaction was evaluated using microscale thermophoresis (MST) with Monolith NT.115 Pico instrument (NanoTemper Technologies, Munich, Germany). The NTSR2 antibody was labeled with the Monolith protein labeling kit and RED-NHS 2nd generation kit and used as a target molecule in PBS with 0.005% Tween-20. Experiments were conducted using the Monolith NT.115 premium capillariesat Pico-RED 80% excitation power and medium MST power with thermophoresis. For the labeled NTSR2 antibody, a concentration of 20 nM was used, whereas for the NTS(8–13) peptide, 16 serial dilutions were prepared starting from 0.5 mg/mL. Dark incubation was performed for 20 min after mixing the target and ligand molecule. Triplicate results were analyzed using the M.O. affinity analysisv.2.3 software.

[2] = biological target: high-affinity receptor (NTSR2); settings: binding affinity to its high-affinity receptor (NTSR2) according to the literature; ref [69]; cited from earlier work

Kd [1]: 32.9 µM
Substance: RRPYIL [NTS(8–13), fragment of the neurotensin peptide (RRPYIL)]
Kd [2]: 5 to 7 nM
